Entries after “also recorded” stand apart in the source; their conditions may differ. Where two headings read alike, the source gives them in different places.
Legend:
PDE4A probes = assay: Redistribution of the PDE4A probes (summary); type: cell-based; conditions: compound alone
[1] = human, in vivo, cited from earlier work
PDE4 = conditions: cited from earlier work; for Inhibition of PDE4 catalytic activity: yes/no
HSPDE4A4-EGFP [2] = target: T1, HSPDE4A4-EGFP (Homo sapiens, UniProt P27815); assay: Dispersal of preformed Rolipram-induced spots, HSPDE4A4-EGFP CHO cells; type: cell-based; conditions: FBS-replete cells; 200 nM PMA, 2 μM ionomycin, or 50 μM forskolin plus 1 mM IBMX
T1 construct: expressed in transfected cells
Protocol: For the microscopic assessment of spot dispersal, stably transfected (non-clonal) cells transfected with the HSPDE4A4-EGFP probe are allowed to adhere to chambered coverglasses in HAM's F12 medium containing 10% FBS. […] Chambered coverglasses are then transferred to a Zeiss 135 inverted microscope for time lapse imaging as described in Example 2, above. At a given point after starting an experiment, a mixture of IBMX and forskolin is added to give final concentrations of 1 mM and 50 μM, respectively. Images are captured at regular intervals to form a time lapse sequence of the response, also as described in Example 2.
The plate is then run in the FLIPR system at 37° C., with addition of IBMX and forskolin to all wells at final concentrations of 500 μM and 50 μM respectively after the first minute. The experiment is continued for a further 45 minutes, readings being taken at intervals of 1 minute.
Non-clonal CHO cells stably transfected with the HSPDE4A4-EGFP probe are allowed to adhere to chambered coverglasses in HAM's F12 medium containing 10% FBS and to grow for 24 hours.
Clonal CHO cells stably transfected with the HSPDE4A4-EGFP probe are allowed to adhere to chambered coverglasses in HAM's F12 medium containing 10% FBS and to grow for 5 days without change of medium, which by this time is serum-depleted.
Individual wells are then treated with either 50 μM forskolin plus 500 μM IBMX or 200 nM PMA plus 2 μM ionomycin.

[3] = target: T2, high affinity Rolipram binding site (HARBS); conditions: read-out: Displacement of [3H] Rolipram (i: μM); Data from Souness and Rao, 1997; cited from earlier work
T2 construct: Displacement of [3H]; Rolipram (i: μM); other: Data from Souness and Rao, 1997

HSPDE4A4-EGFP [4] = target: T1, HSPDE4A4-EGFP; assay: Reappearance of spots after removal of Rolipram (salt/chill or ambient conditions), HSPDE4A4-EGFP CHO cells; type: cell-based; conditions: for effect on number of reappearing spots per cell: 5 μM SB203580, added NaCl, chilled to 4° C. 4 hours
Protocol: Cells are returned to conditions of 37° C.+5% CO2 in humidified air (i.e. standard incubator conditions). […] Spots are induced to reappear in these ways:
A) NaCl is added to the cells to increase the final concentration of salt in the medium. The cells in FIGS. 28a, 28b and 28c are all in HAM's F12+10% FBS to which NaCl has been added to increase the concentration of NaCl by 100 mM. Cells in 28c are additionally treated with 5 micromolar SB203580, a specific inhibitor of p38 mitogen activated protein kinases (p38 MAPK). The cells in FIG. 28b are returned to conditions of 37° C.+5% CO2 in humidified air (i.e. standard incubator conditions), while those in 28a and 28c are chilled to 4° C. After 4 hours of these treatments cells were fixed with 4% formaldehyde pH 7.0 at room temperature for 1 hour, and washed with PBS buffer ready for imaging. […] A second group of the same cells are treated similarly but with the addition of 5 μM SB203580. All treatments are then chilled, fixed and then stained with 1 μM Hoechst 33258 in PBS for 10 minutes at 25° C., and washed twice in PBS. Automated images are collected and analysed for the number of spots per cell as described in Example 2.
B) Cells are left at ambient conditions. […] They are then left under ambient conditions (normal air, 22 to 25° C.) rather than in a cell incubator, for a period of 4 hours.
After 4 hours under ambient conditions the cells are fixed with 4% formaldehyde buffer (pH7) for 1 hour, washed with PBS and stained with 1 μM Hoechst 33258 in PBS for 10 minutes at 25° C., and washed twice in PBS. Automated images are collected and analysed for the number of spots per cell as described in Example 2.

HSPDE4A4catD-EGFP = target: T3, HSPDE4A4catD-EGFP (Homo sapiens, UniProt P27815+Q08499); type: cell-based; conditions: 5 μg/ml cycloheximide
T3 construct: the 3′-end catalytic region of HSPDE4D isoforms (nucleotides 700-2019 of HSPDE4D3 cDNA); HSPDE4A4 N-terminal fragment (nucleotides 1-1023 of L20965); expressed in transfected cells
From the text: Transiently transfected or stably transfected (non-clonal) cells are allowed to adhere to chambered coverglasses in HAM's F12 medium containing 10% FBS.

HSPDE4A4-EGFP [5] = target: T1, HSPDE4A4-EGFP; assay: Competitive spot assay: inhibition of Rolipram- or RS25344-induced spot formation, HSPDE4A4-EGFP CHO cells; type: cell-based; conditions: for effect on spot formation by 2 μM Rolipram (in words): 500 μM theophylline, 100 μM caffeine, 10 μM milrinone, 0.5 μM cilostamide, 100 μM zaprinast
Protocol: (§1) The cells are then fixed with 4% formaldehyde buffer (pH7) for 1 hour, washed with PBS and stained with 1 μM Hoechst 33258 in PBS for 10 minutes at 25° C., then washed twice in PBS. Automated images are collected and analysed for the number of spots per cell as described in Example 2.
as §1

HSPDE4A4-EGFP [6] = target: T1, HSPDE4A4-EGFP; assay: Spot formation in CHO cells transfected with HSPDE4A4-EGFP; type: cell-based; conditions: observed up to 24 hours
Protocol: Chinese hamster ovary cells (CHO), are transfected with the plasmids described in Example 1 above using the transfection agent FuGENE™ 6 (Boehringer Mannheim Corp, USA) according to the method recommended by the suppliers. Stable transfectants are selected using 1 mg/ml G418 sulphate (Calbiochem) in the growth medium (HAM's F12 nutrient mix with Glutamax-1, 10% foetal bovine serum (FBS), 100 μg penicillin-streptomycin mixture ml^−1 (GibcoBRL, supplied by Life Technologies, Denmark). Cell are cultured at 37° C. in 100% humidity and conditions of normal atmospheric gases supplemented with 5% CO2.
For fluorescence microscopy, cells are allowed to adhere to Lab-Tek chambered coverglasses (Nalge Nunc International, Naperville USA) for at least 24 hours and are then cultured to about 80% confluence. Cells can also be grown in plastic 96-well plates (Polyfiltronics Packard 96-View Plate or Costar Black Plate, clear bottom; both types tissue culture treated) for imaging purposes. Prior to experiments, the cells are cultured over night without G418 sulphate in HAM F-12 medium with glutamax, 100 μg penicillin-streptomycin mixture ml^−1 and 10% FBS. This medium has low autofluorescence enabling fluorescence microscopy of cells straight from the incubator. For certain tests requiring medium of defined composition, particularly with regard to the presence of specific cell growth factors, the HAM's culture medium is replaced prior to imaging with a buffered saline solution (KRW buffer) containing (in mM) 3.6 KCl, 140 NaCl, 2 NaHCO3, 0.5 NaH2PO4, 0.5 MgSO4, 1.5 CaCl2, 10 Hepes, 5 glucose, pH7.4.
Changes in cellular distribution of a transfected probe can be imaged and quantified in an automated fashion. For this purpose cells are cultured to near 80% to 90% confluence in coverglass chambers or plastic 96-well plates, given the relevant treatment and allowed to respond. At the end of the response period, cells are fixed in 4% formaldehyde buffer (Lillies fixative buffer, pH7.0: Bie and Berntsen A/S, Denmark) for 30 minutes to 2 hours, then washed in phosphate buffered saline (PBS, Life Technologies, Denmark). Nuclear DNA is stained with 1 μM Hoechst 33258 (Molecular Probes, Eugene, Oreg., USA) in PBS for 10 minutes at 25° C., then washed twice in PBS. Automated images are collected on a Nikon Diaphot 300 (Nikon, Japan) using a Nikon Plan Fluor 20X/0.5NA objective lens. The basic microscope is fitted with a motorised specimen stage and motorised focus control (Prior Scientific, Fulbourn, Cambridge UK), excitation filter wheel (Sutter Instruments, Novato Calif. USA) and Photometrics PXL series camera with a KAF1400 CCD chip (Photometrics, Tucson, Ariz. USA), each of these items being under the control of an Macintosh 7200/90 computer (Apple Computer, Cupertino, Calif. USA). Automation of stage positioning, focus, excitation filter selection, and image acquisition is performed using macros written in-house, running under IPLab Spectrum for Macintosh (Scanalytics, Fairfax, Va. USA). Fluorescence illumination comes from a 100 W HBO lamp. Images are collected in pairs, the first using a 340/10 nm excitation filter, the second with a 475RDF40 excitation filter (Chroma, Brattleboro, Vt.). Both images are collected via the same dichroic and emission filters, which are optimised for EGFP applications (XF100 filter set, Omega Optical, Brattleboro, Vt.). While the choice of filters for imaging the nuclear stain (Hoechst 33258) is not well matched to that dye's spectral properties, resulting in lower image intensity, it greatly improves the throughput of the procedure by allowing both images to be collected using the same dichroic and emission filter. This eliminates any image registration problems and focus shifts which would result from using two different filter sets, which would require more steps in the acquisition procedure and more extensive image processing to overcome.

[7] = Data from Souness and Rao, 1997, read-out: PDE4 inhibition (IC50: μM)
[8] = literature values quoted in Example 5 (Saldou 1998; Ahluwalia 1982; Rubin 1991), read-out: IC50 against PDE4

T1 sequence (P27815 whole entry): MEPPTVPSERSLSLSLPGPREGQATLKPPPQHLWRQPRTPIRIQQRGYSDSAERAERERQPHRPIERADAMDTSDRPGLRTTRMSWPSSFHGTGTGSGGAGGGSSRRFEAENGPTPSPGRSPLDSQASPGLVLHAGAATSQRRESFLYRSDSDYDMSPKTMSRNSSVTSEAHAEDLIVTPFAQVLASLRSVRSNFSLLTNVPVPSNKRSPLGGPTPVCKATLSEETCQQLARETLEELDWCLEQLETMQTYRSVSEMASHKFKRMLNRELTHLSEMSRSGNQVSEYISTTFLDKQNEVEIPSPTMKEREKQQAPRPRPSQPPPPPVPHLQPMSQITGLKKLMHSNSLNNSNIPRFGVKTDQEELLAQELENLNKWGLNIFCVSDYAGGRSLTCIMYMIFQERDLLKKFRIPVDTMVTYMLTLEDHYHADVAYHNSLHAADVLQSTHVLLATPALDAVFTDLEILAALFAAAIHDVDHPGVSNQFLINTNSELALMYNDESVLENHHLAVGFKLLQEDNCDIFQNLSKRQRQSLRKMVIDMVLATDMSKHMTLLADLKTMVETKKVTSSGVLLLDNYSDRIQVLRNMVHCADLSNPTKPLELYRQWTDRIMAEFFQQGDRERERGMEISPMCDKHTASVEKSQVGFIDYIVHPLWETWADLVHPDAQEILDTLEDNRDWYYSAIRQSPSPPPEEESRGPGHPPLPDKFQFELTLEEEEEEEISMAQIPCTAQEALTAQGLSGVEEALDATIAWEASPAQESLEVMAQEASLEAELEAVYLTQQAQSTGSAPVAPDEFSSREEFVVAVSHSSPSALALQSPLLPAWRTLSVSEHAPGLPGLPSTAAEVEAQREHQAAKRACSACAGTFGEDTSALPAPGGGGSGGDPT
T3 sequence (P27815+Q08499 fused with the stated changes, form open): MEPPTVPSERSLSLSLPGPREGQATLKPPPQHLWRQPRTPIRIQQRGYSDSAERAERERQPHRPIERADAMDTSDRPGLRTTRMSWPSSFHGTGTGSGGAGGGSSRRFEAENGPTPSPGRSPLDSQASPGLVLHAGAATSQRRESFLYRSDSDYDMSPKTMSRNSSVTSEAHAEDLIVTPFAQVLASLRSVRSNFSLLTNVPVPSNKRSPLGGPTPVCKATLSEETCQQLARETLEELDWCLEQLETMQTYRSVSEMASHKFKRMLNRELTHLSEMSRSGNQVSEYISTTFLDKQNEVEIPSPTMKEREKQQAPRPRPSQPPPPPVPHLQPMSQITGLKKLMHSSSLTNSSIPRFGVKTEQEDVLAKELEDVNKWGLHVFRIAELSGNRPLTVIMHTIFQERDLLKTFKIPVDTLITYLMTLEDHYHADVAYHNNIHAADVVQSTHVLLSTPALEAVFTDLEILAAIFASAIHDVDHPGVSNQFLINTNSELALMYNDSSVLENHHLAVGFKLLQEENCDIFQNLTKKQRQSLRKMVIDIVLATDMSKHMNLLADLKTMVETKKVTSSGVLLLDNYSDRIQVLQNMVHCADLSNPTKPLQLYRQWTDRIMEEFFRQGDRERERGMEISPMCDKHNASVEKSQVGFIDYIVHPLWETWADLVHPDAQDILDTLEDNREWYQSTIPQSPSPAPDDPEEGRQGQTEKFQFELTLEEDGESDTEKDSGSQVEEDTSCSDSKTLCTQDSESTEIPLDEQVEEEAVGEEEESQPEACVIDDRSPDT

SMILES: COc1ccc(C2CNC(=O)C2)cc1OC1CCCC1 (racemic) [Rolipram, 4-(3-cyclopentyloxy-4-methoxyphenyl)-2-pyrolidone]
- redistribution of the PDE4A probes (PDE4A probes): causes a change in the distribution
- Clinical effect ([1]; anti-inflammatory clinical effect): anti-
- Clinical effect ([1]; antidepressant clinical effect): antidepressant
- Emesis [1]: yes

SMILES: CCCCCCCCCCCCCC(=O)O[C@@H]1[C@@H](C)[C@@]2(O)[C@@H](C=C(CO)C[C@]3(O)C(=O)C(C)=C[C@@H]23)[C@@H]2C(C)(C)[C@]12OC(C)=O [PMA, Phorbol-12-Myristate-13-Acetate]
- dispersal of Rolipram-induced spots (in words) (HSPDE4A4-EGFP [2]): disperse all spots of HSPDE4A4-EGFP probe rapidly and completely; also recorded: no longer concentrated in bright spots in any of the cell population

SMILES: CCCCOc1cc(CC2CNC(=O)N2)ccc1OC (stereo not drawn) [Ro 20-1724]
- redistribution of the PDE4A probes (PDE4A probes): indistinguishable from those induced by Rolipram treatment
- Clinical effect [1]: anti-
- Emesis [1]: yes
- Ki [3]: 0.017 µM
- IC50 (PDE4; [7]): 2.4 µM
- IC50 (PDE4; [8]): 2 µM
- Inhibition of PDE4 catalytic activity (PDE4): yes

SMILES: C[S+]([O-])c1ccc(-c2nc(-c3ccncc3)c(-c3ccc(F)cc3)[nH]2)cc1 (stereo not drawn) [SB203580]
- effect on number of reappearing spots per cell (HSPDE4A4-EGFP [4]): decreases the number of spots per cell
- effect on number of reappearing spots per cell (HSPDE4A4-EGFP [4]; listed as SB 203580): significantly fewer, but larger, bright spots per cell

SMILES: C[C@@H]1C[C@@H]([C@H](O)CC2CC(=O)NC(=O)C2)C(=O)[C@@H](C)C1 [cycloheximide]
- effect of pre-treatment on formation of spots induced by Rolipram and RS25344 (HSPDE4A4catD-EGFP): prevents formation of spots
- effect of pre-treatment on formation of spots induced by Rolipram (HSPDE4A4-EGFP [5]; 5 μg/ml cycloheximide): prevents formation of spots

SMILES: Cc1[nH]c(=O)c(C#N)cc1-c1ccncc1 [milrinone]
- redistribution of the PDE4A probes (PDE4A probes): no redistribution
- IC50 (PDE4; [8]): ~10 µM
- effect on spot formation by 2 μM Rolipram (in words) (HSPDE4A4-EGFP [5]): form the same number and type of bright spots
- formation of spots, compound alone (in words) (HSPDE4A4-EGFP [6]): do not produce spots

SMILES: O=C1CCC(N2C(=O)c3ccccc3C2=O)C(=O)N1 (stereo not drawn) [thalidomide]
- mean spot count per cell (±sem) (HSPDE4A4-EGFP [4]; 400 μM thalidomide, 100 mM NaCl added, 2 hours at 4° C. (without thalidomide 0.856±0.195)): 0.364±0.047
- cells in which spots reappear (HSPDE4A4-EGFP [4]; 400 micromolar thalidomide, ambient conditions 4 hours (about 50% without)): less than 5%
- IC50 (HSPDE4A4-EGFP [4]; ambient conditions 4 hours, read-out: IC50 against the reappearance of spots): 33 µM
- formation of spots, compound alone (in words) (HSPDE4A4-EGFP [6]): do not produce spots

SMILES: Cn1c(=O)c2[nH]cnc2n(C)c1=O [theophylline]
- redistribution of the PDE4A probes (PDE4A probes): no redistribution

SMILES: CCCOc1ccccc1-c1nc2nn[nH]c2c(=O)[nH]1 [zaprinast]
- redistribution of the PDE4A probes (PDE4A probes): no redistribution
- effect on spot formation by 2 μM Rolipram (in words) (HSPDE4A4-EGFP [5]): form the same number and type of bright spots
- formation of spots, compound alone (in words) (HSPDE4A4-EGFP [6]): do not produce spots
